Measured values taken from PubChem BioAssay (NCI).
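All cell lines were grown in 96-well plates and treated with compound for 48 hours. The concentration for full growth arrest is given as TGI.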

Experiments:
Assay in all cases: growth of human tumour cells (NCI), 48 h
SK-MEL-5 melanoma = tested on: SK-MEL-5 melanoma
NCI-H226 lung = tested on: NCI-H226 lung
MALME-3M melanoma = tested on: MALME-3M melanoma
KM12 colon = tested on: KM12 colon
RXF 393 renal = tested on: RXF 393 renal
SF-539 CNS = tested on: SF-539 CNS
SNB-19 CNS = tested on: SNB-19 CNS
HCT-116 colon = tested on: HCT-116 colon
NCI-H460 lung = tested on: NCI-H460 lung
HCC-2998 colon = tested on: HCC-2998 colon
SK-MEL-28 melanoma = tested on: SK-MEL-28 melanoma
PC-3 prostate = tested on: PC-3 prostate
UACC-257 melanoma = tested on: UACC-257 melanoma
OVCAR-5 ovarian = tested on: OVCAR-5 ovarian
NCI/ADR-RES ovarian = tested on: NCI/ADR-RES ovarian
HOP-62 NSCLC = tested on: HOP-62 NSCLC
HL-60(TB) leukemia = tested on: HL-60(TB) leukemia
MCF7 breast = tested on: MCF7 breast
DU-145 prostate = tested on: DU-145 prostate

Compound | TGI (SK-MEL-5 melanoma) | TGI (NCI-H226 lung) | TGI (MALME-3M melanoma) | TGI (KM12 colon) | TGI (RXF 393 renal) | TGI (SF-539 CNS) | TGI (SNB-19 CNS) | TGI (HCT-116 colon) | TGI (NCI-H460 lung) | TGI (HCC-2998 colon) | TGI (SK-MEL-28 melanoma) | TGI (PC-3 prostate) | TGI (UACC-257 melanoma) | TGI (OVCAR-5 ovarian) | TGI (NCI/ADR-RES ovarian) | TGI (HOP-62 NSCLC) | TGI (HL-60(TB) leukemia) | TGI (MCF7 breast) | TGI (DU-145 prostate)
Cc1ccc(Nc2cc(=O)[nH]c(=O)[nH]2)cc1CS | > 100 µM | > 100 µM | > 100 µM | > 100 µM | > 100 µM | > 100 µM | > 100 µM | > 100 µM | > 100 µM | > 100 µM | > 100 µM | > 100 µM | > 100 µM | > 100 µM | > 100 µM | > 100 µM | – | – | –
COc1cc2c(cc1OC)C1(c3ccccc3)ON=C(c3ccccc3)N1CS2 (configuration not stated) | > 100 µM | > 100 µM | > 100 µM | > 100 µM | > 100 µM | > 100 µM | > 100 µM | > 100 µM | > 100 µM | > 100 µM | > 100 µM | – | > 100 µM | > 100 µM | – | > 100 µM | > 100 µM | – | –
N#Cc1nc(C2SCCCS2)oc1N | > 100 µM | – | – | > 100 µM | – | – | > 100 µM | > 100 µM | – | – | > 100 µM | > 100 µM | > 100 µM | > 100 µM | – | > 100 µM | > 100 µM | > 100 µM | > 100 µM
CSC1CC2C(CC1(C)SC)C2(C)C (configuration not stated) | 78.9 µM | 73.1 µM | > 100 µM | > 100 µM | > 100 µM | > 100 µM | > 100 µM | – | 67 µM | > 100 µM | > 100 µM | – | 86.9 µM | > 100 µM | – | > 100 µM | 58 µM | – | –
C=CCOCn1ccc(NC(=O)c2ccccc2)nc1=O | > 100 µM | > 100 µM | > 100 µM | > 100 µM | – | > 100 µM | > 100 µM | > 100 µM | > 100 µM | > 100 µM | > 100 µM | > 100 µM | > 100 µM | – | – | > 100 µM | > 100 µM | > 100 µM | > 100 µM
COC(=O)C1=C(OC(=O)/C(=C/c2c(F)cccc2F)c2ccccc2)C(C(=O)OC)[C@@]2(O)[C@@H](C(=O)OC)[C@H](C)C[C@@H]1[C@@H]2C(=O)OC (some centres not stated) | – | > 100 µM | > 100 µM | > 100 µM | > 100 µM | > 100 µM | > 100 µM | > 100 µM | > 100 µM | – | > 100 µM | > 100 µM | > 100 µM | > 100 µM | > 100 µM | > 100 µM | > 100 µM | – | > 100 µM
C=CCN1C[C@@H](C)N([C@@H](c2ccccc2)c2ccc(C(=O)N(CC)CC)cc2)C[C@@H]1C | > 100 µM | > 100 µM | > 100 µM | > 100 µM | – | > 100 µM | > 100 µM | > 100 µM | – | – | > 100 µM | > 100 µM | – | > 100 µM | > 100 µM | > 100 µM | > 100 µM | > 100 µM | > 100 µM
CC1=C(c2ccc(C)cc2)NC(=S)C(C)C(c2ccc(C)cc2)=N1 (configuration not stated) | > 100 µM | > 100 µM | > 100 µM | > 100 µM | 70.9 µM | > 100 µM | > 100 µM | > 100 µM | > 100 µM | > 100 µM | > 100 µM | – | > 100 µM | > 100 µM | > 100 µM | > 100 µM | > 100 µM | > 100 µM | > 100 µM
Cc1ccc(C(O)/C(=N/N)c2nc3ccc([N+](=O)[O-])cc3[nH]c2=O)cc1 (configuration not stated) | > 100 µM | > 100 µM | > 100 µM | > 100 µM | > 100 µM | – | > 100 µM | > 100 µM | > 100 µM | > 100 µM | > 100 µM | – | > 100 µM | > 100 µM | – | > 100 µM | > 100 µM | – | –
O=C(/C=C/c1ccc(O)cc1)c1cc(O)cc(O)c1 | 28.9 µM | 50.3 µM | 47.3 µM | – | 32 µM | 26.5 µM | 30.3 µM | 26.3 µM | – | – | 42.7 µM | 23.2 µM | 30.3 µM | 29 µM | > 100 µM | 29 µM | > 100 µM | 12.3 µM | 25.2 µM
CCN1C(=O)C(N=[N+]=[N-])(c2ccccc2)C(=O)c2ccccc21 (configuration not stated) | > 100 µM | > 100 µM | > 100 µM | > 100 µM | > 100 µM | > 100 µM | > 100 µM | > 100 µM | > 100 µM | > 100 µM | > 100 µM | – | > 100 µM | > 100 µM | – | > 100 µM | > 100 µM | – | –
CC(=O)O[C@]12CCCCC1C1(O)C(O)CCCC[C@H]12 (some centres not stated) | > 100 µM | > 100 µM | > 100 µM | > 100 µM | > 100 µM | – | > 100 µM | > 100 µM | > 100 µM | – | > 100 µM | – | > 100 µM | – | – | > 100 µM | > 100 µM | – | –
CC(C(=O)N1C(=O)N(C(=O)[C@H](C)C(O)c2ccccc2)[C@H](c2ccccc2)[C@H]1c1ccccc1)[C@@H](O)c1ccccc1 (some centres not stated) | 28.1 µM | > 100 µM | – | > 100 µM | – | 81.9 µM | > 100 µM | > 100 µM | 78.1 µM | > 100 µM | > 100 µM | 83.6 µM | 84.4 µM | 78.3 µM | – | > 100 µM | > 100 µM | > 100 µM | > 100 µM
O=C1C=C(NCCc2cc(Cl)c(O)c(Cl)c2)C(=O)c2[nH]cnc21 | 31.5 µM | – | 15.9 µM | > 100 µM | – | > 100 µM | > 100 µM | > 100 µM | 68.3 µM | > 100 µM | 65.9 µM | > 100 µM | 60 µM | > 100 µM | > 100 µM | > 100 µM | 32.9 µM | 64.8 µM | –
C=CCN(c1cc(OCc2ccccc2)c2c(c1)c(C)cn2S(=O)(=O)c1ccccc1)S(C)(=O)=O | > 100 µM | > 100 µM | > 100 µM | > 100 µM | > 100 µM | > 100 µM | > 100 µM | > 100 µM | > 100 µM | > 100 µM | > 100 µM | > 100 µM | > 100 µM | > 100 µM | > 100 µM | > 100 µM | > 100 µM | – | > 100 µM
O=C1CCCCCCCCCCC1CN(Cc1ccccc1)Cc1ccccc1 (configuration not stated) | 32.4 µM | > 100 µM | 75.2 µM | > 100 µM | 70.2 µM | > 100 µM | > 100 µM | 55.9 µM | – | 85.8 µM | > 100 µM | > 100 µM | > 100 µM | > 100 µM | – | > 100 µM | 76.4 µM | 68.1 µM | > 100 µM
CCOc1ccc(N=Nc2c(-c3ccccc3)nn(C(=O)CC(=O)Nc3cccc(C)c3)c2-c2ccccc2)cc1 | > 100 µM | > 100 µM | > 100 µM | > 100 µM | > 100 µM | > 100 µM | > 100 µM | > 100 µM | > 100 µM | > 100 µM | > 100 µM | – | > 100 µM | > 100 µM | – | > 100 µM | > 100 µM | – | –
COC(=O)C(CCSc1ccccc1)C(=O)OC | > 100 µM | > 100 µM | > 100 µM | > 100 µM | > 100 µM | > 100 µM | – | > 100 µM | > 100 µM | > 100 µM | > 100 µM | > 100 µM | > 100 µM | > 100 µM | > 100 µM | > 100 µM | > 100 µM | > 100 µM | –
COc1ccc(/C(Cl)=C(\CNc2ccccn2)c2ccccc2)cc1OC | > 100 µM | > 100 µM | > 100 µM | > 100 µM | > 100 µM | > 100 µM | > 100 µM | > 100 µM | > 100 µM | > 100 µM | > 100 µM | > 100 µM | > 100 µM | > 100 µM | > 100 µM | > 100 µM | > 100 µM | – | > 100 µM
Nc1ccc(-c2nc3ccccc3s2)cc1F | 40.9 µM | – | > 100 µM | > 100 µM | > 100 µM | – | 87.9 µM | 32.9 µM | – | – | > 100 µM | > 100 µM | > 100 µM | – | > 100 µM | > 100 µM | – | > 100 µM | > 100 µM
COc1cc2c(cc1O)-c1c(OC)c(O)cc3c1C(C2)N(C)CC3 (configuration not stated) | > 100 µM | > 100 µM | – | > 100 µM | > 100 µM | > 100 µM | > 100 µM | > 100 µM | > 100 µM | – | – | > 100 µM | > 100 µM | > 100 µM | > 100 µM | – | > 100 µM | > 100 µM | > 100 µM
O=C1NCC2(CCNCC2)N1 | > 100 µM | > 100 µM | > 100 µM | > 100 µM | > 100 µM | > 100 µM | > 100 µM | > 100 µM | > 100 µM | > 100 µM | > 100 µM | – | > 100 µM | > 100 µM | > 100 µM | > 100 µM | > 100 µM | > 100 µM | > 100 µM
COC(=O)C1CCC[C@H]2C(CO)=C(C)C(=O)[C@@H]12 (some centres not stated) | > 100 µM | > 100 µM | > 100 µM | > 100 µM | > 100 µM | > 100 µM | > 100 µM | > 100 µM | > 100 µM | > 100 µM | > 100 µM | – | > 100 µM | > 100 µM | – | > 100 µM | > 100 µM | – | –
